PubChem BioAssay AID248 (DTP/NCI, 2004)
Toxic doses and inconclusive results are not listed.

System: L1210 leukemia ip in BDF1 mice, survival T/C
Test: NCI In Vivo Anticancer Drug Screen. Data for tumor model L1210 Leukemia (intraperitoneal) in B6D2F1 (BDF1) mice
Settings: endpoint: mean survival time, higher = longer survival
Procedure, shortened: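 Ratio derived from survival: compound-dosed mice over vehicle-dosed mice, all bearing a transplantable tumor.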

[1] = dose: 100.0 mg/kg/injection, schedule: Q04DX003 (ip), vehicle: saline with Tween-80
[2] = dose: 200.0 mg/kg/injection, schedule: Q04DX003 (ip), vehicle: saline with Tween-80
[3] = dose: 75.0 mg/kg/injection, schedule: Q01DX001 (ip), vehicle: saline
[4] = dose: 150.0 mg/kg/injection, schedule: Q01DX001 (ip), vehicle: saline
[5] = dose: 100.0 mg/kg/injection, schedule: Q01DX009 (ip), vehicle: Klucel (hydroxypropylcellulose) (HPC)
[6] = dose: 200.0 mg/kg/injection, schedule: Q01DX009 (ip), vehicle: Klucel (hydroxypropylcellulose) (HPC)
[7] = dose: 400.0 mg/kg/injection, schedule: Q01DX009 (ip), vehicle: Klucel (hydroxypropylcellulose) (HPC)
[8] = dose: 100.0 mg/kg/injection, schedule: Q04DX002 (ip), vehicle: Klucel (hydroxypropylcellulose) (HPC)
[9] = dose: 200.0 mg/kg/injection, schedule: Q04DX002 (ip), vehicle: Klucel (hydroxypropylcellulose) (HPC)

In the case of `N#CCCCCCCCCC(=O)OCCC#N`, the T/C (dose: 100.0 mg/kg/injection, schedule: Q01DX001 (ip), vehicle: other) was 95 % of control, the T/C (dose: 200.0 mg/kg/injection, schedule: Q01DX001 (ip), vehicle: other) was 98 % of control and the T/C (dose: 400.0 mg/kg/injection, schedule: Q01DX001 (ip), vehicle: other) was 97 % of control.
With `O=S(=O)(O)C(O)C(Cl)(Cl)Cl` (stereo not drawn) the T/C (dose: 100.0 mg/kg/injection, schedule: Q01DX001 (ip), vehicle: saline) was 103 % of control, the T/C (dose: 100.0 mg/kg/injection, schedule: Q01DX009 (ip), vehicle: saline) was 98 % of control and the T/C (dose: 100.0 mg/kg/injection, schedule: Q04DX003 (ip), vehicle: saline) was 107 % of control. The T/C (dose: 200.0 mg/kg/injection, schedule: Q01DX001 (ip), vehicle: saline) was 101 % of control, the T/C (dose: 200.0 mg/kg/injection, schedule: Q01DX009 (ip), vehicle: saline) was 101 % of control and the T/C (dose: 200.0 mg/kg/injection, schedule: Q04DX003 (ip), vehicle: saline) was 96 % of control. The T/C (dose: 400.0 mg/kg/injection, schedule: Q01DX001 (ip), vehicle: saline) was 98 % of control, the T/C (dose: 400.0 mg/kg/injection, schedule: Q01DX009 (ip), vehicle: saline) was 98 % of control and the T/C (dose: 400.0 mg/kg/injection, schedule: Q04DX003 (ip), vehicle: saline) was 95 % of control.
For `O=C(O)c1cnc(Cl)c([N+](=O)[O-])c1`, the T/C [1] was 96 % of control and the T/C [2] was 89 % of control.
In the case of `O=C(Cl)c1ccc([N+](=O)[O-])cc1`, the T/C [1] was 102 % of control and the T/C [2] was 101 % of control.
`Cc1c2cnccc2c(C)c2c1c1ccccc1n2C` was tested, and the T/C (dose: 29.0 mg/kg/injection, schedule: Q01DX Z (ip), vehicle: saline) was 109 % of control, the T/C (dose: 44.0 mg/kg/injection, schedule: Q01DX Z (ip), vehicle: saline) was 123 % of control and the T/C (dose: 66.0 mg/kg/injection, schedule: Q01DX Z (ip), vehicle: saline) was 120 % of control. The T/C (dose: 66.0 mg/kg/injection, schedule: Q01DX Z (oral), vehicle: saline) was 112 % of control, the T/C (dose: 100.0 mg/kg/injection, schedule: Q01DX Z (ip), vehicle: saline) was 121 % of control and the T/C (dose: 100.0 mg/kg/injection, schedule: Q01DX Z (oral), vehicle: saline) was 115 % of control. The T/C (dose: 150.0 mg/kg/injection, schedule: Q01DX Z (oral), vehicle: saline) was 155 % of control and the T/C (dose: 225.0 mg/kg/injection, schedule: Q01DX Z (oral), vehicle: saline) was 171 % of control.
In the case of `CN(CCC(C#N)c1ccccc1)C(=O)c1ccccc1` (stereo not drawn), the T/C [3] was 98 % of control and the T/C [4] was 96 % of control.
With `Cc1c(C(=O)O)sc2ccc([N+](=O)[O-])cc12` the T/C (dose: 100.0 mg/kg/injection, schedule: Q01DX001 (ip), vehicle: carboxymethylcellulose (CMC)) was 97 % of control, the T/C (dose: 200.0 mg/kg/injection, schedule: Q01DX001 (ip), vehicle: carboxymethylcellulose (CMC)) was 95 % of control and the T/C (dose: 400.0 mg/kg/injection, schedule: Q01DX001 (ip), vehicle: carboxymethylcellulose (CMC)) was 92 % of control.
In the case of `O=[N+]([O-])c1cccc(S(=O)(=O)Oc2ccc(-c3ccccc3)cc2)c1`, the T/C [1] was 96 % of control, the T/C [2] was 91 % of control and the T/C (dose: 400.0 mg/kg/injection, schedule: Q04DX003 (ip), vehicle: saline with Tween-80) was 90 % of control.
For `O=c1[nH]c2ccsc2c(=O)n1OS(=O)(=O)c1ccccc1`, the T/C [5] was 100 % of control, the T/C [6] was 100 % of control and the T/C [7] was 88 % of control.
With `OC1CCN(C2(c3ccccc3)CCCCC2)CC1` the T/C [8] was 104 % of control and the T/C [9] was 86 % of control.
`CCCCCCCCCCCCCCCCCCNC(=O)N(C)Cc1ccccc1` was tested, and the T/C [8] was 99 % of control, the T/C [9] was 96 % of control and the T/C (dose: 400.0 mg/kg/injection, schedule: Q04DX002 (ip), vehicle: Klucel (hydroxypropylcellulose) (HPC)) was 96 % of control.
With `CC1(C)Oc2ccccc2O1` the T/C [1] was 93 % of control.
`C=C(C)C1(CCCCC)C(=O)NC(=O)NC1=O` was tested, and the T/C [3] was 101 % of control and the T/C [4] was 98 % of control.
`CC(C)c1ccc2cc(C(C)C)ccc2c1` was tested, and the T/C (dose: 100.0 mg/kg/injection, schedule: Q01DX009 (ip), vehicle: saline with Tween-80) was 107 % of control, the T/C (dose: 200.0 mg/kg/injection, schedule: Q01DX009 (ip), vehicle: saline with Tween-80) was 92 % of control and the T/C (dose: 400.0 mg/kg/injection, schedule: Q01DX009 (ip), vehicle: saline with Tween-80) was 92 % of control.
For `CCc1nc2ccccc2[nH]1`, the T/C [1] was 97 % of control and the T/C [2] was 102 % of control.
In the case of `O=[N+]([O-])c1ccccc1SNc1ccccc1`, the T/C [5] was 102 % of control, the T/C (dose: 100.0 mg/kg/injection, schedule: Q04DX003 (ip), vehicle: Klucel (hydroxypropylcellulose) (HPC)) was 96 % of control and the T/C [6] was 105 % of control. For the same molecule, the T/C [7] was 107 % of control and the T/C (dose: 400.0 mg/kg/injection, schedule: Q04DX003 (ip), vehicle: Klucel (hydroxypropylcellulose) (HPC)) was 103 % of control.
